Test results reported in patent publication US20250034159A1, “INHIBITORS OF EPIDERMAL GROWTH FACTOR RECEPTOR” (ORIC Pharmaceuticals, Inc., priority 2021, published 2025).

Legend:
[1] = tested on: BaF3_EGFR d19/CS cells; experiment: Biological Activity Assay D: BaF3 cell proliferation assay, EGFR exon 19 deletion/C797S (BaF3 d19/CS); type: cell-based; settings: Ba/F3 EGFR; BaF3_EGFR d19/CS cells, ~72 hours, CellTiter-Glo; read-out: BaF3 d19/CS IC50
[2] = target: recombinant human EGFR L858R/C797S double mutant protein (Homo sapiens (Human), UniProt P00533, C797S/L858R); experiment: Biological Activity Assay B: biochemical assay against EGFR L858R/C797S protein (EGFR LR/CS)
Chain of recombinant human EGFR L858R/C797S double mutant protein (P00533 25-1210 C797S/L858R): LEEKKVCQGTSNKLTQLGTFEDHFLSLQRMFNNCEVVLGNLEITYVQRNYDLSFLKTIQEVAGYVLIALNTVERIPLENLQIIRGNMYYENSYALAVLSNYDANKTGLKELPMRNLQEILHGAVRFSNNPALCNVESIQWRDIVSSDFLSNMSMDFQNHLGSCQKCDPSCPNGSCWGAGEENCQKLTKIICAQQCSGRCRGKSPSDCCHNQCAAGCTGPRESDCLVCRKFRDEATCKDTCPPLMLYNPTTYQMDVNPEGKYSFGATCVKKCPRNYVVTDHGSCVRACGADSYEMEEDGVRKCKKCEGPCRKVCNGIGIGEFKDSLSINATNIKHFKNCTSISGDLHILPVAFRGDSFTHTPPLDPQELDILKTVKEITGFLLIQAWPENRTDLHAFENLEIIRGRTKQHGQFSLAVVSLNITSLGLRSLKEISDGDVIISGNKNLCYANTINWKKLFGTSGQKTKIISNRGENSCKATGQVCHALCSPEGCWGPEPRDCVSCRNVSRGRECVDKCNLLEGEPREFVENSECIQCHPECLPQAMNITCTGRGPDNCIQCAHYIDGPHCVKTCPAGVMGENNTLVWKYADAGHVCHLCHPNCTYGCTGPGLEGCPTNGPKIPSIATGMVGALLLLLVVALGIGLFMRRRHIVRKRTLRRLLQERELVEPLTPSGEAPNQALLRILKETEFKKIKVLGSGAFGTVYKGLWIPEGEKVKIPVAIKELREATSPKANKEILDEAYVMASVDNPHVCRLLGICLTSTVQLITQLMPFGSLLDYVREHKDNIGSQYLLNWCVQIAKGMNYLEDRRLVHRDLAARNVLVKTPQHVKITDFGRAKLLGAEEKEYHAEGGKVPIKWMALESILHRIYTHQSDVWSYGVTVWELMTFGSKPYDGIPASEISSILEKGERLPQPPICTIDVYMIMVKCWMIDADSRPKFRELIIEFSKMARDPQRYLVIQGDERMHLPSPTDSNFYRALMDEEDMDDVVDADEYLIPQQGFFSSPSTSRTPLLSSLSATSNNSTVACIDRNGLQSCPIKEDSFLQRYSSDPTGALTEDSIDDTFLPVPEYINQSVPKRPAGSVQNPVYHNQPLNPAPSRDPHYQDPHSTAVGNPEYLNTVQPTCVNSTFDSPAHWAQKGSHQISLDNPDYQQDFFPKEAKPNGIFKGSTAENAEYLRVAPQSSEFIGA
Procedure: In Row A of a 384-well polypropylene plate, was added 48 μL of DMSO. In wells A1 and A24, were added 12 μL of DMSO. […] To a well in Row A were added 12 μL of each 10 mM test compound stock (100% DMSO). […] The final intermediate dilution plate contained 4×16-point compound serial dilutions in assay buffer. The DMSO concentration was 10%. The intermediate compound dilution plate was transferred to the Bravo and the “5 uL dispense into ARP.pro” protocol was run. To the black low volume assay ready plates, were added 5 μL of 40 uM Phosphosens peptide sensor/4 mM ATP working solution to each well. […] To column 24, was added 10 μL of assay buffer. The final DMSO concentration was 2.5%. […] The plates were sealed with the TopSeal-A Plus plate seals. […] Set for 90 cycles with 120 second interval. […] The slope of each curve was constructed using Dotmatics in each well, and each IC50s was calculated using a 4-parameter fit model.

[3] = target: recombinant human EGFR exon 19 deletion/C797S double mutant protein (Homo sapiens (Human), UniProt P00533, C797S/DEL746-750); experiment: Biological Activity Assay C: biochemical assay against EGFR exon 19 deletion/C797S protein (EGFR d19/CS)
Chain of recombinant human EGFR exon 19 deletion/C797S double mutant protein (P00533 other isoform, or with tags, fused parts or gaps C797S/del 1-668/del 746-750 limits assumed): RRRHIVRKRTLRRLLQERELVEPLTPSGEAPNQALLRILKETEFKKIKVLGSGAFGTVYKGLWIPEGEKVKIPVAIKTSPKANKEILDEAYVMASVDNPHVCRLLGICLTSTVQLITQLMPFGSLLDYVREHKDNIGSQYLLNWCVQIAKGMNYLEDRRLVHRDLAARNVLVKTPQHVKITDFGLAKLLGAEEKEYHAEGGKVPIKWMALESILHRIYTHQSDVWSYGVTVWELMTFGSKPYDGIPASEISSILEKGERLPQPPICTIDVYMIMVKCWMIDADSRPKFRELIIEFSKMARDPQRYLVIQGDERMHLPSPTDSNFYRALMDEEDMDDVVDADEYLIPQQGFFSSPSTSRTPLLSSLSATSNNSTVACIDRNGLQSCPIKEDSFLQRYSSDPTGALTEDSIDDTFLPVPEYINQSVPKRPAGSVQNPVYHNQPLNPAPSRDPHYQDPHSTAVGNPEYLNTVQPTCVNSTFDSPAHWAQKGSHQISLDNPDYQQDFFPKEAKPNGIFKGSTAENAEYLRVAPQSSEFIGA
Summary of the method: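 IC50 values were fitted with a 4-parameter model to reaction slopes taken from 90 kinetic reads spaced 120 s apart. The Phosphosens sensor/ATP working solution was 40 uM/4 mM, and compound was dosed as 16-point dilutions at 2.5% final DMSO.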

[4] = tested on: BaF3_EGFR LR/CS cells; experiment: Biological Activity Assay D: BaF3 cell proliferation assay, EGFR L858R/C797S mutant (BaF3 LR/CS); type: cell-based; settings: Ba/F3 EGFR; BaF3_EGFR LR/CS cells, ~72 hours, CellTiter-Glo; read-out: BaF3 LR/CS IC50
[5] = tested on: Ba/F3_EGFR WT cells; experiment: Biological Activity Assay D: BaF3 cell proliferation assay, EGFR wild-type (BaF3 WT); type: cell-based; settings: Ba/F3 EGFR; Ba/F3_EGFR WT cells, ~72 hours, CellTiter-Glo; read-out: BaF3 WT IC50

| IC50 [1] | IC50 [2] | IC50 [3] | IC50 [4] | IC50 [5] | SMILES |
| --- | --- | --- | --- | --- | --- |
| 40.8 nM | 0.462 nM | 0.538 nM | 122 nM | 2130 nM | O=S1(=O)CCC(Cn2cc(-c3ncnc4oc(-c5ccccc5)cc34)c(-c3ccc(F)cc3)n2)C1 (racemic) [Example 53, 3-{[3-(4-fluorophenyl)-4-(6-phenylfuro[2,3-d]pyrimidin-4-yl)-1H-pyrazol-1-yl]methyl}-1λ6-thiolane-1,1-dione] |
| 33.8 nM | 0.58 nM | 0.39 nM | 27.5 nM | 1860 nM | Fc1ccc(-c2nn(C3CCOC3)cc2-c2ncnc3oc(-c4ccccc4)cc23)cc1 (racemic) [Example 85, 4-[3-(4-Fluorophenyl)-1-(oxolan-3-yl)-1H-pyrazol-4-yl]-6-phenylfuro[2,3-d]pyrimidine] |
| 20.4 nM | 0.38 nM | 0.3 nM | 19.9 nM | 373 nM | CS(=O)(=O)N1CCC(n2cc(-c3ncnc4oc(-c5ccccc5)cc34)c(-c3ccc(F)cc3)n2)C1 (racemic) [Example 89, 4-{3-(4-fluorophenyl)-1-[1-(methanesulfonyl)pyrrolidin-3-yl]-1H-pyrazol-4-yl}-6-phenylfuro[2,3-d]pyrimidine] |
| 110 nM | 0.41 nM | 0.31 nM | 31.6 nM | 703 nM | O=S1(=O)CCCC(Cn2cc(-c3ncnc4oc(-c5ccccc5)cc34)c(-c3ccc(F)cc3)n2)C1 (racemic) [Example 115, 3-{[3-(4-Fluorophenyl)-4-(6-phenylfuro[2,3-d]pyrimidin-4-yl)-1H-pyrazol-1-yl]methyl}-1λ6-thiane-1,1-dione] |
| 24.2 nM | 0.65 nM | 0.36 nM | 26.1 nM | 1340 nM | O=S1(=O)CC[C@@H](n2cc(-c3ncnc4oc(-c5ccccc5)cc34)c(-c3ccc(F)cc3)n2)C1 (single isomer, unassigned) [Example 72] |
| 56 nM | 0.77 nM | 0.48 nM | 80.9 nM | 2490 nM | O=S1(=O)CC[C@H](n2cc(-c3ncnc4oc(-c5ccccc5)cc34)c(-c3ccc(F)cc3)n2)C1 (single isomer, unassigned) [Example 73] |
| 64.9 nM | 0.51 nM | 0.24 nM | 36.2 nM | 1510 nM | Fc1ccc(-c2nn([C@@H]3CCOC3)cc2-c2ncnc3oc(-c4ccccc4)cc23)cc1 (single isomer, unassigned) [Example 90] |
| 39.9 nM | 0.37 nM | 0.23 nM | 23.8 nM | 1280 nM | Fc1ccc(-c2nn([C@H]3CCOC3)cc2-c2ncnc3oc(-c4ccccc4)cc23)cc1 (single isomer, unassigned) [Example 91] |
| 150 nM | 0.39 nM | 0.62 nM | 73.8 nM | 1480 nM | O=S1(=O)CC[C@H](Cn2cc(-c3ncnc4oc(-c5ccccc5)cc34)c(-c3ccc(F)cc3)n2)C1 (single isomer, unassigned) [Example 96] |
| 79.4 nM | 0.33 nM | 0.34 nM | 39.2 nM | 1190 nM | O=S1(=O)CC[C@@H](Cn2cc(-c3ncnc4oc(-c5ccccc5)cc34)c(-c3ccc(F)cc3)n2)C1 (single isomer, unassigned) [Example 97] |
| 701 nM | 5.7 nM | 8.51 nM | 822 nM | > 20000 nM | O=S1(=O)CCC[C@@H](n2cc(-c3ncnc4oc(-c5ccccc5)cc34)c(-c3ccc(F)cc3)n2)C1 (single isomer, unassigned) [Example 99] |
| 319 nM | 2.76 nM | 4.23 nM | 407 nM | 13300 nM | O=S1(=O)CCC[C@H](n2cc(-c3ncnc4oc(-c5ccccc5)cc34)c(-c3ccc(F)cc3)n2)C1 (single isomer, unassigned) [Example 100] |
| 4.96 nM | 0.39 nM | 0.27 nM | 8.69 nM | 115 nM | CS(=O)(=O)N1CC[C@@H](n2cc(-c3ncnc4oc(-c5ccccc5)cc34)c(-c3ccc(F)cc3)n2)C1 (single isomer, unassigned) [Example 101] |
| 16.5 nM | 0.35 nM | 0.2 nM | 21.1 nM | 161 nM | CS(=O)(=O)N1CC[C@H](n2cc(-c3ncnc4oc(-c5ccccc5)cc34)c(-c3ccc(F)cc3)n2)C1 (single isomer, unassigned) [Example 102] |
| 169 nM | 3.15 nM | 1.66 nM | 130 nM | 808 nM | OCCCc1nc(-c2ccc(F)cc2)n(-c2ccnc3[nH]c(-c4ccccc4)cc23)n1 [Example 3, 3-[5-(4-Fluorophenyl)-1-(2-phenyl-1H-pyrrolo[2,3-b]pyridin-4-yl)-1H-1,2,4-triazol-3-yl]propan-1-ol] |
| 36.4 nM | 1.29 nM | 0.466 nM | 32.1 nM | 1400 nM | OCCCn1cc(-c2ccnc3[nH]c(-c4ccccc4)nc23)c(-c2ccc(F)cc2)n1 [Example 4, 3-[3-(4-Fluorophenyl)-4-(2-phenyl-3H-imidazo[4,5-b]pyridin-7-yl)-1H-pyrazol-1-yl]propan-1-ol] |
| 90.6 nM | 1.2 nM | 0.45 nM | 80.3 nM | 2430 nM | OCCCn1cc(-c2ncnc3oc(-c4ccccc4)nc23)c(-c2ccc(F)cc2)n1 [Example 5, 3-[3-(4-Fluorophenyl)-4-(2-phenyl[1,3]oxazolo[5,4-d]pyrimidin-7-yl)-1H-pyrazol-1-yl]propan-1-ol] |
| 5.81 nM | 0.253 nM | 0.148 nM | 4.4 nM | 1100 nM | OCCCn1cc(-c2ncnc3[nH]c(-c4ccccc4)nc23)c(-c2ccc(F)cc2)n1 [Example 6, 3-[3-(4-Fluorophenyl)-4-(8-phenyl-9H-purin-6-yl)-1H-pyrazol-1-yl]propan-1-ol] |
| 19.6 nM | 1.09 nM | 1.14 nM | 19.6 nM | 754 nM | OCCCc1nc(-c2ccc(F)cc2)c(-c2ccnc3[nH]c(-c4ccccc4)cc23)s1 [Example 8, 3-[4-(4-Fluorophenyl)-5-(2-phenyl-1H-pyrrolo[2,3-b]pyridin-4-yl)-1,3-thiazol-2-yl]propan-1-01] |
| 0.547 nM | 0.099 nM | 0.121 nM | 0.63 nM | 15.4 nM | OCCCn1cc(-c2ncnc3[nH]c(-c4ccccc4)cc23)c(-c2ccc(F)cc2)n1 [Example 9, 3-[3-(4-Fluorophenyl)-4-(6-phenyl-7H-pyrrolo[2,3-d]pyrimidin-4-yl)-1H-pyrazol-1-yl]propan-1-ol] |
| 1.31 nM | 0.152 nM | 0.113 nM | 1.63 nM | 74 nM | CN1CCN(c2ccc(-c3nc4c(-c5cn(CCCO)nc5-c5ccc(F)cc5)ncnc4o3)cc2)CC1 [Example 10, 3-[3-(4-Fluorophenyl)-4-{2-[4-(4-methylpiperazin-1-yl)phenyl][1,3]oxazolo[5,4-d]pyrimidin-7-yl}-1H-pyrazol-1-yl]propan-1-ol] |
| 5.79 nM | 0.521 nM | 0.408 nM | 6.91 nM | 594 nM | OCCCn1cc(-c2ncnc3oc(-c4ccccc4)cc23)c(-c2ccc(F)cc2)n1 [Example 11, 3-[3-(4-Fluorophenyl)-4-(6-phenylfuro[2,3-d]pyrimidin-4-yl)-1H-pyrazol-1-yl]propan-1-ol] |
| 723 nM | 5.49 nM | 2.25 nM | 203 nM |  | OCCCn1cc(-c2ncnc3sc(-c4ccccc4)cc23)c(-c2ccc(F)cc2)n1 [Example 68, 3-[3-(4-fluorophenyl)-4-(6-phenylthieno[2,3-d]pyrimidin-4-yl)-1H-pyrazol-1-yl]propan-1-ol] |
| 388 nM | 6.38 nM | 3.25 nM | 143 nM |  | Fc1ccc(-c2nn(C3COC3)cc2-c2ncnc3oc(-c4ccccc4)nc23)cc1 [Example 80, 7-[3-(4-fluorophenyl)-1-(oxetan-3-yl)-1H-pyrazol-4-yl]-2-phenyl[1,3]oxazolo[5,4-d]pyrimidine] |
| 8.85 nM |  | 0.213 nM | 8.63 nM | 613 nM | Oc1ncccc1-c1cc2c(-c3cn([C@H]4C[C@@H](F)C4)nc3-c3ccc(F)cc3)ncnc2o1 [Example 287, 3-(4-{1-[(1s,3s)-3-fluorocyclobutyl]-3-(4-fluorophenyl)-1H-pyrazol-4-yl}furo[2,3-d]pyrimidin-6-yl)pyridin-2-ol] |
